Data: ChEMBL document CHEMBL1201861, “Genomics of Drug Sensitity in Cancer screening data, Wellcome Trust Sanger Institute”

How the values were obtained:
[1] = test system: BB49-HNC; test: cells; assay type: functional, cell-based, Homo sapiens; conditions: Homo sapiens, BB49-HNC;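 further: cell viability assay read-out, reported as inhibition of BB49-HNC cell growth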
Description: SANGER: Inhibition of human BB49-HNC cell growth in a cell viability assay.

[2] = test system: SCC-9; test: cells; assay type: functional, cell-based, Homo sapiens; conditions: Homo sapiens, SCC-9;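 further: Read-out is a cell viability assay, with values giving inhibition of cell growth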
Description: SANGER: Inhibition of human SCC-9 cell growth in a cell viability assay.

[3] = test system: HD-MY-Z; test: cells; assay type: functional, cell-based, Homo sapiens; conditions: Homo sapiens, HD-MY-Z;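 further: growth inhibition of HD-MY-Z cells, read out with a cell viability assay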
Description: SANGER: Inhibition of human HD-MY-Z cell growth in a cell viability assay.

[4] = test system: NCI-H1770; test: cells; assay type: functional, cell-based, Homo sapiens; conditions: Homo sapiens, NCI-H1770;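 further: growth inhibition of NCI-H1770 cells determined with a viability readout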
Description: SANGER: Inhibition of human NCI-H1770 cell growth in a cell viability assay.

[5] = test system: Panc1005; test: cells; assay type: functional, cell-based, Homo sapiens; conditions: Homo sapiens, Panc1005;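 further: growth inhibition of human PANC-10-05 cells, measured by a cell viability assay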
Description: SANGER: Inhibition of human PANC-10-05 cell growth in a cell viability assay.

[6] = test system: ChaGo-K-1; test: cells; assay type: functional, cell-based, Homo sapiens; conditions: Homo sapiens, ChaGo-K-1;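 further: growth inhibition of ChaGo-K-1 cells, read out with a cell viability assay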
Description: SANGER: Inhibition of human ChaGo-K-1 cell growth in a cell viability assay.

[7] = test system: NCI-H1155; test: cells; assay type: functional, cell-based, Homo sapiens; conditions: Homo sapiens, NCI-H1155
Description: SANGER: Inhibition of human NCI-H1155 cell growth in a cell viability assay.

[8] = test system: NCI-H1355; test: cells; assay type: functional, cell-based, Homo sapiens; conditions: Homo sapiens, NCI-H1355;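 further: growth inhibition of human NCI-H1355 cells, read out by a cell viability assay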
Description: SANGER: Inhibition of human NCI-H1355 cell growth in a cell viability assay.

[9] = test system: NCI-H1623; test: cells; assay type: functional, cell-based, Homo sapiens; conditions: Homo sapiens, NCI-H1623;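 further: cell viability assay used as the read-out for growth inhibition of NCI-H1623 cells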
Description: SANGER: Inhibition of human NCI-H1623 cell growth in a cell viability assay.

[10] = test system: NOS-1; test: cells; assay type: functional, cell-based, Homo sapiens; conditions: Homo sapiens, NOS-1;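 further: growth inhibition of the human NOS-1 cell line, read out with a cell viability assay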
Description: SANGER: Inhibition of human NOS-1 cell growth in a cell viability assay.

[11] = test system: EB-3; test: cells; assay type: functional, cell-based, Homo sapiens; conditions: Homo sapiens, EB-3;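 further: human EB-3 cells, growth inhibition read out via a cell viability assay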
Description: SANGER: Inhibition of human EB-3 cell growth in a cell viability assay.

[12] = test system: BL-70; test: SANGER: Inhibition of human BL-70 cell growth in a cell viability assay.; assay type: functional, cell-based; conditions: Homo sapiens, BL-70
[13] = test system: LB647-SCLC; test: cells; assay type: functional, cell-based, Homo sapiens; conditions: Homo sapiens, LB647-SCLC;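 further: cell growth inhibition, read out by a viability assay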
Description: SANGER: Inhibition of human LB647-SCLC cell growth in a cell viability assay.

[14] = test system: A-375; test: cells; assay type: functional, cell-based, Homo sapiens; conditions: Homo sapiens, A-375;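 further: growth inhibition of A375 cells, read out with a cell viability assay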
Description: SANGER: Inhibition of human A375 cell growth in a cell viability assay.

[15] = test system: NCI-H1437; test: cells; assay type: functional, cell-based, Homo sapiens; conditions: Homo sapiens, NCI-H1437;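 further: growth inhibition of human NCI-H1437 cells, read out by a cell viability assay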
Description: SANGER: Inhibition of human NCI-H1437 cell growth in a cell viability assay.

[16] = test system: NY; test: cells; assay type: functional, cell-based, Homo sapiens; conditions: Homo sapiens, NY
Description: SANGER: Inhibition of human NY cell growth in a cell viability assay.

[17] = test system: GP5d; test: cells; assay type: functional, cell-based, Homo sapiens; conditions: Homo sapiens, GP5d;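 further: growth inhibition of human GP5d cells, read out with a cell viability assay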
Description: SANGER: Inhibition of human GP5d cell growth in a cell viability assay.

[18] = test system: RS4-11; test: cells; assay type: functional, cell-based, Homo sapiens; conditions: Homo sapiens, RS4-11;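 further: growth inhibition of RS4-11 cells, read out by a cell viability assay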
Description: SANGER: Inhibition of human RS4-11 cell growth in a cell viability assay.

[19] = test system: DU-4475; test: cells; assay type: functional, cell-based, Homo sapiens; conditions: Homo sapiens, DU-4475
Description: SANGER: Inhibition of human DU-4475 cell growth in a cell viability assay.

[20] = test system: GI-ME-N; test: cells; assay type: functional, cell-based, Homo sapiens; conditions: Homo sapiens, GI-ME-N;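 further: growth inhibition of human GI-ME-N cells, read out with a cell viability assay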
Description: SANGER: Inhibition of human GI-ME-N cell growth in a cell viability assay.

[21] = test system: NCI-H2141; test: cells; assay type: functional, cell-based, Homo sapiens; conditions: Homo sapiens, NCI-H2141;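 further: growth inhibition of human NCI-H2141 cells, read out with a cell viability assay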
Description: SANGER: Inhibition of human NCI-H2141 cell growth in a cell viability assay.

[22] = test system: KURAMOCHI; test: cells; assay type: functional, cell-based, Homo sapiens; conditions: Homo sapiens, KURAMOCHI;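 further: growth inhibition of KURAMOCHI cells, read out with a cell viability assay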
Description: SANGER: Inhibition of human KURAMOCHI cell growth in a cell viability assay.

[23] = test system: EGI-1; test: cells; assay type: functional, cell-based, Homo sapiens; conditions: Homo sapiens, EGI-1;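 further: cell viability readout used to gauge growth inhibition of EGI-1 cells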
Description: SANGER: Inhibition of human EGI-1 cell growth in a cell viability assay.

[24] = test system: MKN-7; test: cells; assay type: functional, cell-based, Homo sapiens; conditions: Homo sapiens, MKN-7;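 further: growth inhibition of MKN-7 cells, read out with a cell viability assay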
Description: SANGER: Inhibition of human MKN7 cell growth in a cell viability assay.

[25] = test system: CAPAN-1; test: cells; assay type: functional, cell-based, Homo sapiens; conditions: Homo sapiens, CAPAN-1;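 further: growth suppression of CAPAN-1 cells, read out by a cell viability assay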
Description: SANGER: Inhibition of human CAPAN-1 cell growth in a cell viability assay.

[26] = test system: WM-115; test: cells; assay type: functional, cell-based, Homo sapiens; conditions: Homo sapiens, WM-115
Description: SANGER: Inhibition of human WM-115 cell growth in a cell viability assay.

[27] = test system: A101D; test: cells; assay type: functional, cell-based, Homo sapiens; conditions: Homo sapiens, A101D;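 further: growth inhibition of the cell line, measured with a viability assay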
Description: SANGER: Inhibition of human A101D cell growth in a cell viability assay.

[28] = test system: KP-4; test: cells; assay type: functional, cell-based, Homo sapiens; conditions: Homo sapiens, KP-4;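 further: human KP-4 cells, with growth inhibition read out through a cell viability assay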
Description: SANGER: Inhibition of human KP-4 cell growth in a cell viability assay.

[29] = test system: BHY; test: cells; assay type: functional, cell-based, Homo sapiens; conditions: Homo sapiens, BHY;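 further: cell growth inhibition read out by a viability assay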
Description: SANGER: Inhibition of human BHY cell growth in a cell viability assay.

[30] = test system: COLO-741; test: cells; assay type: functional, cell-based, Homo sapiens; conditions: Homo sapiens, COLO-741
Description: SANGER: Inhibition of human COLO-741 cell growth in a cell viability assay.

[31] = test system: EVSA-T; test: cells; assay type: functional, cell-based, Homo sapiens; conditions: Homo sapiens, EVSA-T;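 further: growth inhibition of EVSA-T cells, read out with a cell viability assay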
Description: SANGER: Inhibition of human EVSA-T cell growth in a cell viability assay.

[32] = test system: NCI-H69; test: cells; assay type: functional, cell-based, Homo sapiens; conditions: Homo sapiens, NCI-H69;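 further: growth inhibition of the cell line, read out with a cell viability assay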
Description: SANGER: Inhibition of human NCI-H69 cell growth in a cell viability assay.

[33] = test system: NCI-H522; test: cells; assay type: functional, cell-based, Homo sapiens; conditions: Homo sapiens, NCI-H522;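 further: cell viability assay measuring growth inhibition of human NCI-H522 cells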
Description: SANGER: Inhibition of human NCI-H522 cell growth in a cell viability assay.

[34] = test system: WSU-NHL; test: cells; assay type: functional, cell-based, Homo sapiens; conditions: Homo sapiens, WSU-NHL;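 further: growth inhibition of human WSU-NHL cells, read out with a cell viability assay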
Description: SANGER: Inhibition of human WSU-NHL cell growth in a cell viability assay.

[35] = test system: U-118-MG; test: cells; assay type: functional, cell-based, Homo sapiens; conditions: Homo sapiens, U-118-MG
Description: SANGER: Inhibition of human U-118-MG cell growth in a cell viability assay.

[36] = test system: BEN; test: cells; assay type: functional, cell-based, Homo sapiens; conditions: Homo sapiens, BEN;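 further: growth inhibition of the BEN cell line, read out with a cell viability assay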
Description: SANGER: Inhibition of human BEN cell growth in a cell viability assay.

[37] = test system: NCI-H719; test: cells; assay type: functional, cell-based, Homo sapiens; conditions: Homo sapiens, NCI-H719;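 further: growth inhibition of the cultured cell line, read out with a viability assay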
Description: SANGER: Inhibition of human NCI-H719 cell growth in a cell viability assay.

[38] = test system: NCI-H82; test: cells; assay type: functional, cell-based, Homo sapiens; conditions: Homo sapiens, NCI-H82;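 further: growth inhibition of NCI-H82 cells, measured with a cell viability readout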
Description: SANGER: Inhibition of human NCI-H82 cell growth in a cell viability assay.

[39] = test system: LAN-6; test: cells; assay type: functional, cell-based, Homo sapiens; conditions: Homo sapiens, LAN-6;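 further: growth inhibition of LAN-6 cells, determined with a cell viability assay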
Description: SANGER: Inhibition of human LAN-6 cell growth in a cell viability assay.

[40] = test system: LB1047-RCC; test: cells; assay type: functional, cell-based, Homo sapiens; conditions: Homo sapiens, LB1047-RCC
Description: SANGER: Inhibition of human LB1047-RCC cell growth in a cell viability assay.

[41] = test system: S-117; test: cells; assay type: functional, cell-based, Homo sapiens; conditions: Homo sapiens, S-117
Description: SANGER: Inhibition of human S-117 cell growth in a cell viability assay.

[42] = test system: NCI-H1650; test: cells; assay type: functional, cell-based, Homo sapiens; conditions: Homo sapiens, NCI-H1650;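 further: growth inhibition of human NCI-H1650 cells measured by a cell viability assay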
Description: SANGER: Inhibition of human NCI-H1650 cell growth in a cell viability assay.

[43] = test system: LN-405; test: cells; assay type: functional, cell-based, Homo sapiens; conditions: Homo sapiens, LN-405
Description: SANGER: Inhibition of human LN-405 cell growth in a cell viability assay.

[44] = test system: NCI-H1573; test: cells; assay type: functional, cell-based, Homo sapiens; conditions: Homo sapiens, NCI-H1573;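 further: growth inhibition of NCI-H1573 cells, read out with a cell viability assay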
Description: SANGER: Inhibition of human NCI-H1573 cell growth in a cell viability assay.

[45] = test system: 5637; test: cells; assay type: functional, cell-based, Homo sapiens; conditions: Homo sapiens
Description: SANGER: Inhibition of human 5637 cell growth in a cell viability assay.

[46] = test system: AGS; test: cells; assay type: functional, cell-based, Homo sapiens; conditions: Homo sapiens, AGS;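 further: growth inhibition of AGS cells, determined with a cell viability assay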
Description: SANGER: Inhibition of human AGS cell growth in a cell viability assay.

[47] = test system: COR-L105; test: cells; assay type: functional, cell-based, Homo sapiens; conditions: Homo sapiens, COR-L105
Description: SANGER: Inhibition of human COR-L105 cell growth in a cell viability assay.

[48] = test system: Ca9-22; test: cells; assay type: functional, cell-based, Homo sapiens; conditions: Homo sapiens, Ca9-22;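 further: growth inhibition of Ca9-22 cells, read out with a cell viability assay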
Description: SANGER: Inhibition of human Ca9-22 cell growth in a cell viability assay.

O=C(O)c1ccc(-c2c[nH]c3ncc(-c4ccccc4)cc23)cc1C1CCCC1 [GSK-650394]
IC50 [1]: > 16000 nM
IC50 [2]: > 16000 nM
IC50 [3]: > 16000 nM
IC50 [4]: 10000 nM
IC50 [5]: 11400 nM
IC50 [6]: > 16000 nM
IC50 [7]: > 16000 nM
IC50 [8]: > 16000 nM
IC50 [9]: > 16000 nM
IC50 [10]: > 16000 nM
IC50 [11]: > 16000 nM
IC50 [12]: > 16000 nM
IC50 [13]: 7930 nM
IC50 [14]: 5250 nM
IC50 [15]: 6130 nM
IC50 [16]: > 16000 nM
IC50 [17]: > 16000 nM
IC50 [18]: 8960 nM
IC50 [19]: > 16000 nM
IC50 [20]: > 16000 nM
IC50 [21]: > 16000 nM
IC50 [22]: > 16000 nM
IC50 [23]: > 16000 nM
IC50 [24]: > 16000 nM
IC50 [25]: > 16000 nM
IC50 [26]: > 16000 nM
IC50 [27]: 9270 nM
IC50 [28]: 5190 nM
IC50 [29]: 4920 nM
IC50 [30]: > 16000 nM
IC50 [31]: > 16000 nM
IC50 [32]: 7670 nM
IC50 [33]: 13000 nM
IC50 [34]: > 16000 nM
IC50 [35]: > 16000 nM
IC50 [36]: > 16000 nM
IC50 [37]: > 16000 nM
IC50 [38]: > 16000 nM
IC50 [39]: > 16000 nM
IC50 [40]: 6200 nM
IC50 [41]: > 16000 nM
IC50 [42]: > 16000 nM
IC50 [43]: > 16000 nM
IC50 [44]: > 16000 nM
IC50 [45]: 3210 nM
IC50 [46]: 8560 nM
IC50 [47]: > 16000 nM
IC50 [48]: > 16000 nM

CC1(C)CNc2cc(NC(=O)c3cccnc3NCc3ccncc3)ccc21 [MOTESANIB]
IC50 [1]: > 2000 nM
IC50 [2]: > 2000 nM
IC50 [3]: > 2000 nM
IC50 [4]: > 2000 nM
IC50 [5]: > 2000 nM
IC50 [6]: > 2000 nM
IC50 [7]: > 2000 nM
IC50 [8]: > 2000 nM
IC50 [9]: > 2000 nM
IC50 [10]: > 2000 nM
IC50 [14]: > 2000 nM
IC50 [15]: > 2000 nM
IC50 [16]: > 2000 nM
IC50 [17]: > 2000 nM
IC50 [18]: > 2000 nM
IC50 [19]: > 2000 nM
IC50 [20]: > 2000 nM
IC50 [22]: > 2000 nM
IC50 [23]: > 2000 nM
IC50 [24]: > 2000 nM
IC50 [25]: > 2000 nM
IC50 [26]: > 2000 nM
IC50 [27]: > 2000 nM
IC50 [28]: > 2000 nM
IC50 [29]: > 2000 nM
IC50 [30]: > 2000 nM
IC50 [32]: > 2000 nM
IC50 [33]: > 2000 nM
IC50 [35]: > 2000 nM
IC50 [36]: > 2000 nM
IC50 [38]: > 2000 nM
IC50 [39]: > 2000 nM
IC50 [40]: > 2000 nM
IC50 [41]: > 2000 nM
IC50 [42]: > 2000 nM
IC50 [43]: > 2000 nM
IC50 [44]: > 2000 nM
IC50 [45]: > 2000 nM
IC50 [46]: > 2000 nM
IC50 [47]: > 2000 nM
IC50 [48]: > 2000 nM

CC(C)c1ccccc1Cc1cc(C(=O)Nc2ccc(S(=O)(=O)c3ccccc3C(C)(C)C)cc2)c(O)c(O)c1O
IC50 [1]: 2010 nM
IC50 [2]: 957 nM
IC50 [3]: 395 nM
IC50 [5]: 1100 nM
IC50 [6]: 296 nM
IC50 [8]: 1290 nM
IC50 [9]: 595 nM
IC50 [10]: 235 nM
IC50 [14]: 88.8 nM
IC50 [15]: 538 nM
IC50 [16]: 178 nM
IC50 [17]: 782 nM
IC50 [20]: 403 nM
IC50 [22]: 1940 nM
IC50 [23]: 1250 nM
IC50 [24]: 4470 nM
IC50 [25]: 10800 nM
IC50 [26]: 1210 nM
IC50 [27]: 87.5 nM
IC50 [28]: 455 nM
IC50 [29]: 702 nM
IC50 [30]: 1370 nM
IC50 [31]: 140 nM
IC50 [33]: 2080 nM
IC50 [35]: 190 nM
IC50 [36]: 7410 nM
IC50 [39]: 160 nM
IC50 [40]: 319 nM
IC50 [41]: 213 nM
IC50 [42]: 4920 nM
IC50 [43]: 1580 nM
IC50 [44]: 7080 nM
IC50 [45]: 552 nM
IC50 [46]: 37.5 nM
IC50 [47]: 711 nM
IC50 [48]: 3.82 nM
